Here are results for three compounds from US10307371B2 (AI Therapeutics, Inc., priority 2014, dated 2019).

“And” between values parts separate entries of the source, which are not always exact repeats. Equal entries are not always repeated. “Also recorded” adds a separate entry of the source.

A short description of data set [1]: Concentration of rapamycin in blood and lung after oropharyngeal aspiration (OPA) or oral gavage, LC-MS/MS. The class given is in vivo, C57BL/6 mice. Particulars: 1 mg/kg. Here is the method:
Each animal was weighed prior to dosing to determine the amount of dose to be administered. A single gavage dose was administered using a 100-μL glass syringe (Hamilton, Reno, Nev.) fitted with a ball-tipped 20-G stainless steel gavage dosing needle (Popper & Sons Inc., New Hyde Park, N.Y.). The dose administered to each animal was determined from the weight of the full syringe minus that of the empty syringe. The dosing time was recorded. Dosing of animals was spaced apart to allow blood collection at the appropriate times. The dose formulations administered to each group are shown below.
Each mouse was anesthetized with isoflurane, and restrained with the mouth open. The tongue was held to one side of the mouth with forceps, and the dose was slowly injected into the distal part of the oral cavity. The nostrils were covered with a finger for two breaths to ensure aspiration (Rao et al., 2003).
Collection of Blood and Lung Samples: At study termination (1 or 72 h after dosing), mice were anesthetized by exposure to CO2, and blood was collected by cardiac puncture with dipotassium EDTA as anticoagulant. Lung tissue was excised and divided into the right and left lung. The left lung was used for analysis, and the right lung flash frozen in liquid nitrogen and stored at −70° C. for further analysis.
Triamcinolone was used as internal standard.
Lung homogenate was prepared by homogenization of weighed lung samples with 2.8-mm ball bearings in a homogenizer with tissue+deionized water (1:3 w/v) in a SPEX SamplePrep 2010 Geno/Grinder.
The concentrations of standards were arranged so that each standard came from an alternate stock standard. A six-point calibration curve, each made in triplicate, was employed for analyte quantitation. A simple linear regression model with or without weighting was employed for curve fitting. The concentration range determined was from 1-2000 ng/mL in blood and 2-2000 ng/mL in lung homogenate.
Thirty (30) μL of matrix, 30 μL of spiking solution (methanol for blanks and samples), 10 μL Internal standard solution (in MeOH) and 90 μL of MeOH were pipetted into microcentrifuge tubes, vortexed briefly, then centrifuged for 6 min at 10,000 RPM at ˜4° C. Aliquots (90 μL) of supernatant were transferred to LC vial inserts, and then analyzed by LC-MS/MS (Table 2).

The nature of data set [2]: Particle size distribution by laser diffraction after jet milling or wet polishing. The class given is physicochemical. As for the experimental part:
For jet milling, a lab scale MCOne unit from Jetpharma was used with the following operating conditions: venturi pressure 2-4 bar, milling pressure 3-5 bar, feed rate 90 g/h. For wet polishing, feed suspensions were prepared using purified water. A microfluidics high pressure homogenizer was used for the size reduction step and the resulting suspension was spray-dried. Details of the wet polishing process are set forth below.
The high pressure homogenizer used for the size reduction step of the wet polishing process was a pilot-scale Microfluidics High Pressure Homogenizer equipped with an auxiliary processing module (200 micron) and a 100 micron interaction chamber was used. The unit was operated at ˜455 bar (˜30 bar in the intensifier module hydraulic pressure). After microfluidization the fluid was removed by spray drying to generate a dry powder. A laboratory scale spray dryer, SD45 (BÜCHI, model B-290 Advanced) was equipped with a two fluid nozzle (cap and diameter were 1.4 and 0.7 mm, respectively). Two cyclones in series were used (being the first the standard Buchi cyclone and the second the high-performance Buchi cyclone) to collect the dried product. The spray drying unit was operated with nitrogen and in single pass mode, i.e. without recirculation of the drying nitrogen. The aspirator, blowing nitrogen, was set at 100% of its capacity (flow rate at maximum capacity is approximately 40 kg/h). The flow rate of the atomization nitrogen was adjusted to a value in the rotameter of 40±5 mm. Before feeding the product suspension, the spray dryer was stabilized with purified water, during which the flow rate was adjusted to 6 ml/min (20% in the peristaltic pump). The inlet temperature was adjusted to achieve the target outlet temperature (45° C.). After stabilization of the temperatures, the feed of the spray dryer was commuted from purified water to the product suspension (keeping the same flow rate used during stabilization) and the inlet temperature once again adjusted in order to achieve the target outlet temperature. At the end of the stock suspension, the feed was once more commuted to purified water in order to rinse the feed line and perform a controlled shut down. The dry product in the collection flasks under both cyclones was weighed and the yield calculated as the mass percentage of the dry product in relation to the total solids in the suspension fed to the high pressure homogenizer.
Particle size distribution was analyzed by laser diffraction. Solid state characterization (for polymorphic form and purity) was performed by high pressure liquid chromatography (HPLC), X-ray powder diffraction (XRPD), and differential scanning calorimetry (mDSC). Water content was determined by the Karl Fischer method.

For data set [3] the following is noted: human, cited from earlier work.
For data set [4] the following is noted: cited from earlier work.
In the next data set the test system is angiomyolipomas. To be noted: oral, 20 patients, cited from earlier work.
The test system of another data set is renal angiomyolipomas. To be noted: oral, 16 patients, cited from earlier work.
For data set [5] the following is noted: study of 10 LAM patients; cited from earlier work.
For data set [6] the following is noted: oral, 12 months, cited from earlier work.
A further data set has as its system mTOR. As to the kind of experiment: S6 phosphorylation in mouse lung as biomarker for mTOR activity. To be noted: lung tissue.
Data set [7] in a line: Observation for adverse effects / clinical signs after OPA or gavage dosing.
Experimental: An additional group of 6 mice received vehicle only (10% ethanol in water). […] At the 72-h necropsy, blood was obtained by cardiac puncture and the lungs removed.
The weight of dose solution administered was determined by weighing the charged syringe with dose solution prior to dosing, and weighing following dosing. […] The time of dosing was recorded as 0. Animals in groups 2 and 3 were euthanized at 1 h after dosing.
The conditions of data set [8]: cancer patients administered temsirolimus or everolimus; cited from earlier work.
[9] abbreviates: Gavage (Rapamune Oral), 1 h post-dose, individual animals.
[10] abbreviates: OPA, 1 h post-dose, individual animals.
Where [11] appears, read: OPA, 72 h post-dose, individual animals.

Text for mTOR: To validate this approach, we used the presence of phosphorylated S6 protein in murine lung tissue as a biomarker for mTOR activity.

For `CO[C@H]1C[C@@H]2CC[C@@H](C)[C@@](O)(O2)C(=O)C(=O)N2CCCC[C@H]2C(=O)O[C@H]([C@H](C)C[C@@H]2CC[C@@H](O)[C@H](OC)C2)CC(=O)[C@H](C)/C=C(\C)[C@@H](O)[C@@H](OC)C(=O)[C@H](C)C[C@H](C)/C=C/C=C/C=C/1C` [Rapamycin, (3S,6R,7E,9R,10R,12R,14S,15E,17E,19E,21S,23S,26R,27R,34aS)-9,10,12,13, -14,21,22,23,24,25,26,27,32,33,34,34a-hexadecahydro-9,27-dihydroxy-3-[(1R)-2-[(1S,3R,4R)-4-hydroxy-3-methoxycyclohexyl]-1-methylethyl]-10,21-dimethox-y-6,8,12,14,20,26-hexamethyl-23,27-epoxy-3H-pyrido[2,1-c][1,4]oxaazacyclohentriacontine-1,5,11,28,29(4H,6H,31H)-pentone], in data set [1] (setting [9]), the “Blood” value is 49.85 ng/mL and 11.3 ng/mL and 28.7 ng/mL and 28.35 ng/mL and 2.845 ng/mL and 19.35 ng/mL; the “Lung (ng/g tissue)” value is 109.8 ng/g tissue and 24.66 ng/g tissue and 122.8 ng/g tissue and 54 ng/g tissue and <LOQ and 43 ng/g tissue. Besides, in data set [1] (setting [10]), the “Blood” value was 622 ng/mL and 364.5 ng/mL and 937 ng/mL and 848.5 ng/mL and 615.5 ng/mL and 455.5 ng/mL; the “Lung (ng/g tissue)” value is 4500 ng/g tissue and 1874 ng/g tissue and 4006 ng/g tissue and 4700 ng/g tissue and 5040 ng/g tissue and 2642 ng/g tissue. The “Rapamycin in blood, group statement” value in [1] (OPA, 72 h post-dose) is on record as “below the limit of quantitation; also recorded: undetectable”. Further, in [1] (setting [11]), the “Blood (ng/ml)” value was “<ELOQ”; the “Lung (ng/g tissue)” value was 11.4 ng/g tissue and 15.7 ng/g tissue and 10.8 ng/g tissue and 11.9 ng/g tissue and 13.6 ng/g tissue. In data set [1] (oral (gavage), 72 hrs), the Rapamycin in blood entry is on record as “undetectable” and the Rapamycin in lung entry is given as “undetectable”. In data set [2] (jet milling), the “PSD Dv10” value is 1.5 μm and 1.51 μm; the “PSD Dv50” value is 2.7 μm and 2.74 μm; the “PSD Dv90” value was 4.9 μm and 4.91 μm. Further, in data set [2] (wet polishing), the “PSD Dv10” value was 1.0 μm and 1.05 μm; the “PSD Dv50” value was 2.4 μm and 2.42 μm; the “PSD Dv90” value is 5.0 μm and 4.97 μm. Also, the Volume of distribution in data set [3] (Rapamune NDA 21-110 and 21-083) is 780 L. For the same compound, the Elimination half-life in [3] (assuming equivalency to rapamycin IV dosing) was 42.3 h. The “Chemical stability of the amorphous form” value in [4] was “extremely chemically unstable”. Moreover, the Serious adverse events entry in the data set with angiomyolipomas (24 months) was “diarrhea, pneumonia, pyelonephritis, cellulitis (from an animal bite), stomatitis, and hemorrhage of a renal angiomyolipoma”. The Angiomyolipoma response entry in the data set with angiomyolipomas (during the treatment period) is “regressed “somewhat””. In the data set with renal angiomyolipomas (up to 2 years), the Renal angiomyolipoma response entry is on record as “sustained regression of renal angiomyolipomas” and the “Steady state blood levels” value was 3 to 10 ng/mL. Besides, the Adverse events result in the data set with renal angiomyolipomas is “oral mucositis, respiratory infections, and proteinuria”. The “Patients discontinued because of serious recurrent lower respiratory tract infection or sirolimus-induced pneumonitis” value in data set [5] is 3 patients. For the same compound, in data set [6] (blood levels 5-15 ng/ml), the Lung function result is recorded as “stabilized lung function” and the “Serum VEGF-D levels” value was “reduced serum VEGF-D levels”. In addition, the “Blood levels at which patients were maintained” value in [6] is 5 to 15 ng/mL. Besides, the “Drug level in the lung that substantially abrogates mTOR signaling (pS6)” value with mTOR was “about 70 ng/g”. The Clinical signs entry in [7] (OPA or gavage, 1 mg/kg, up to 72 h after dosing, all groups) is reported as “No significant clinical signs were observed”. Besides, the Adverse effects result in data set [7] (OPA, 1 mg/kg, 72 h period following dosing) is on record as “No adverse effects were observed”. Moreover, in data set [7] (relatively high amounts delivered directly to lung (OPA, 1 mg/kg)), the “Acute toxicity to lung tissue” value is “not acutely toxic to lung tissue”.
Turning to `CO[C@H]1C[C@@H]2CC[C@@H](C)[C@@](O)(O2)C(=O)C(=O)N2CCCC[C@H]2C(=O)O[C@H]([C@H](C)C[C@@H]2CC[C@@H](OCCO)[C@H](OC)C2)CC(=O)[C@H](C)/C=C(\C)[C@@H](O)[C@@H](OC)C(=O)[C@H](C)C[C@H](C)/C=C/C=C/C=C/1C` [everolimus], the “Cancer patients who may experience mild grade pulmonary toxicity” value in data set [8] is given as 10%.
Take `CO[C@H]1C[C@@H]2CC[C@@H](C)[C@@](O)(O2)C(=O)C(=O)N2CCCC[C@H]2C(=O)O[C@H]([C@H](C)C[C@@H]2CC[C@@H](OC(=O)C(C)(CO)CO)[C@H](OC)C2)CC(=O)[C@H](C)/C=C(\C)[C@@H](O)[C@@H](OC)C(=O)[C@H](C)C[C@H](C)/C=C/C=C/C=C/1C` [temsirolimus]: in [8], the “Cancer patients who may experience mild grade pulmonary toxicity” value is listed as 10%.
